Measurements: patent EP0964864B1, “PYRIDO 2,3-D PYRIMIDINES AND 4-AMINOPYRIMIDINES AS INHIBITORS OF CELLULAR PROLIFERATION” (priority 1997, dated 1998)

Key:
[1] = target: FGF-1 (flg) receptor tyrosine kinase; assay: FGF receptor tyrosine kinase assay; assay type: biochemical, human
[2] = target: PDGF-β receptor tyrosine kinase; assay: PDGF receptor tyrosine kinase assay; assay type: biochemical, mouse

IC50 [1]: 4.5 µM | IC50 [2]: 3.7 µM
Structure (SMILES): CCNc1nc(Nc2ccccc2)ncc1C=CC(=O)OCC [Example 17, Ethyl 3-(4-Ethylamino-2-phenylamino-pyrimidin-5-yl)acrylate]
